Paper PMC13185819, “De Novo Multi‐Mechanism Antimicrobial Peptide Design via Multimodal Deep Learning” (Advanced Science, 2026)
Converted amounts (≈) assume the structure as drawn. Residues, ends and D or L forms follow the SMILES beside them.

How the values were obtained:
E. faecium 1042 = format: cell-based
Description: (§1) Standard strains included S. aureus ATCC33592, S. aureus CICC25138, and Salmonella enterica ATCC14028, which were purchased from the China Center of Industrial Culture Collection (CICC). Standard strains including E.coli CMCC44102, Salmonella enterica CMCC50071, and S. aureus CMCC26003 were purchased from the National Center for Medical Culture Collections (CMCC). […] All experiments using the above strains were carried out in a BSL‐2 laboratory. The clinical laboratory of Qilu Hospital detected bacterial resistance to various antibiotics. All strains were streaked on Nutrient Broth (NB) agar medium and incubated overnight at 37°C.
(§2) The antimicrobial activity of the peptides was examined in sterile 96‐well plates using the broth microdilution according to the CLSI standard. The colonies were suspended in saline solution, the turbidity was adjusted to McFarland 0.5 to reach a bacterial concentration of 10^8 CFU/mL, and again diluted 100 times for the inhibition test. Then, 50 µL of bacterial suspension at 1 × 10^6 CFU/mL was incubated with the same volume of different concentrations of peptide solution [serial twofold dilutions in Mueller–Hinton Broth (Hopebio)]. […] All experiments were performed with three independent replicates.

E. faecium 21 = format: cell-based
Description: as §1, §2

E.coli 110 = format: cell-based
Description: as §1, §2

E.coli 208 = format: cell-based
Description: as §1, §2

E.coli CMCC44102 = format: cell-based
Description: as §1, §2

K. pneumoniae 7713 = format: cell-based
Description: as §1, §2

P. aeruginosa 112 = format: cell-based
Description: as §1, §2

P. aeruginosa 116 = format: cell-based
Description: as §1, §2

P. aeruginosa 119 = format: cell-based
Description: as §1, §2

S. aureus 103 = format: cell-based
Description: as §1, §2

S. aureus 129 = format: cell-based
Description: as §1, §2

S. aureus ATCC33592 = format: cell-based
Description: as §1, §2

S. aureus CICC25138 = format: cell-based
Description: as §1, §2

S. aureus CMCC26003 [1] = format: cell-based
Description: as §1, §2

[2] = tested on: human red blood cells (hRBCs); experiment: Hemolysis assay; format: cell-based; conditions: human red blood cells 8% (v/v) in PBS pH 7.4, 1 h, 37°C, absorbance 570 nm; linear interpolation
Description: Human red blood cells (hRBCs) were purchased from Xiamen Immocell Biotechnology Co., Ltd. For the hemolysis test, fresh human red blood cells (hRBCs) were washed three times with PBS (35 mM phosphate buffer, 0.15 M NaCl, pH 7.4) by centrifugation for 5 min at 1000 × g and resuspended in PBS. Then, 50 µL peptide solutions (serial twofold dilutions in PBS) were added to 100 µL of hRBC suspension [8% (v/v) in final] in PBS and incubated for 1 h at 37°C. Samples were centrifuged at 1000 × g for 5 min, and hemoglobin release was monitored by measuring the supernatant absorbance at 570 nm in a flat‐bottom 96‐well plate (Servicebio). hRBCs in PBS or 0.1% Triton X‐100 were used as the negative and positive controls, respectively.

mice = experiment: Systemic safety, intraperitoneal injection; format: in vivo, C57BL/6J mice; conditions: intraperitoneal injection, 60 mg/kg, 96 h, n = 8
Description: The 10‐week‐old female C57BL/6J mice were randomly divided into three groups (n = 8 for each group). […] Mouse survival was monitored for 96 h. For pathologic analysis, mouse liver and kidneys were obtained by surgery for hematoxylin‐eosin (HE) staining after treatment with 40 mg/kg QLX‐3DV‐1 and QLX‐3DV‐2 for 12 h.

S. aureus CMCC26003 [3] = experiment: Drug resistance assay, serial passaging; format: cell-based; conditions: sub-MIC (1/2 × MIC), n = 3; for passages after which S. aureus developed resistance: passaged every 24 h, resistance = greater than fourfold MIC increase
Description: For comparison, the development of resistance to the clinically relevant antibiotics clindamycin (Macklin) and vancomycin (Macklin) was determined. The evolution of resistance by S. aureus CMCC26003 to antibiotics and the peptide was monitored for 20 days of serial passaging in liquid NB. Cells were passaged every 24 h. Briefly, 1 mL of bacterial suspension (1 × 10^6 CFU/mL) was incubated with antibiotics or peptide solution at half the minimal inhibitory concentration at 37°C, 200 rpm. After each incubation period, a new inoculum of 10^6 cells was prepared for inoculation of the following passage containing fresh medium and increased doses of the antimicrobial agent. During the 20 days of serial passaging, the minimum inhibitory concentration of antibiotics or peptides to each generation of cells was determined. The MIC determination method was as previously described. The development of bacterial resistance was defined as a greater than fourfold increase in MICs compared to the initial MICs.

Row | SMILES | MIC (μg/mL) E. faecium 1042 (E. faecium 1042) [µg/mL] | MIC (μg/mL) E. faecium 21 (E. faecium 21) [µg/mL] | MIC (μg/mL) E.coli 110 (E.coli 110) [µg/mL] | MIC (μg/mL) E.coli 208 (E.coli 208) [µg/mL] | MIC (μg/mL) E.coli CMCC44102 (E.coli CMCC44102) [µg/mL] | MIC (μg/mL) K. pneumoniae 7713 (K. pneumoniae 7713) [µg/mL] | MIC (μg/mL) P. aeruginosa 112 (P. aeruginosa 112) [µg/mL] | MIC (μg/mL) P. aeruginosa 116 (P. aeruginosa 116) [µg/mL] | MIC (μg/mL) P. aeruginosa 119 (P. aeruginosa 119) [µg/mL] | MIC (μg/mL) S. aureus 103 (S. aureus 103) [µg/mL] | MIC (μg/mL) S. aureus 129 (S. aureus 129) [µg/mL] | MIC (μg/mL) S. aureus ATCC33592 (S. aureus ATCC33592) [µg/mL] | MIC (μg/mL) S. aureus CICC25138 (S. aureus CICC25138) [µg/mL] | MIC (μg/mL) S. aureus CMCC26003 (S. aureus CMCC26003 [1]) [µg/mL] | 25% hemolytic concentration (HC25) [2] [µg/mL] | survival rate over 96 h (mice) [%] | passages after which S. aureus developed resistance (S. aureus CMCC26003 [3]) [passages] | factor of decrease in susceptibility by the 20th passage (S. aureus CMCC26003 [3]; 20 passages)
1 | CC(C)C[C@H](NC(=O)[C@H](CC(C)C)NC(=O)[C@H](Cc1ccccc1)NC(=O)[C@H](CCCNC(=N)N)NC(=O)[C@H](CCCNC(=N)N)NC(=O)[C@H](CCCNC(=N)N)NC(=O)[C@H](CC(C)C)NC(=O)[C@H](CC(C)C)NC(=O)[C@H](CCCNC(=N)N)NC(=O)[C@H](CCCNC(=N)N)NC(=O)[C@H](CCC(N)=O)NC(=O)[C@H](Cc1c[nH]c2ccccc12)NC(=O)[C@@H](NC(=O)[C@H](CC(C)C)NC(=O)[C@H](CCCNC(=N)N)NC(=O)[C@H](Cc1ccc(O)cc1)NC(=O)[C@@H](N)CCC(N)=O)C(C)C)C(=O)N[C@@H](CCCCN)C(=O)N[C@@H](C)C(N)=O [QLX-3DV-13] (H-QYRLVWQRRLLRRRFLLKA-NH2) | 2 (≈ 0.778 µM) | 4 (≈ 1.56 µM) | 8 (≈ 3.11 µM) | 16 (≈ 6.22 µM) | 4 (≈ 1.56 µM) | 64 (≈ 24.9 µM) | 2 (≈ 0.778 µM) | 32 (≈ 12.4 µM) | 16 (≈ 6.22 µM) | 16 (≈ 6.22 µM) | 16 (≈ 6.22 µM) | 64 (≈ 24.9 µM) | 32 (≈ 12.4 µM) | 4 (≈ 1.56 µM) |  |  |  | 
2 | CC[C@H](C)[C@H](NC(=O)[C@@H](NC(=O)[C@@H](N)CCCCN)C(C)C)C(=O)N[C@@H](CC(N)=O)C(=O)N[C@@H](Cc1ccc(O)cc1)C(=O)N[C@@H](CCCCN)C(=O)N[C@@H](CC(C)C)C(=O)N[C@@H](CCCNC(=N)N)C(=O)N[C@@H](Cc1ccccc1)C(=O)N[C@@H](Cc1ccccc1)C(=O)N[C@@H](Cc1c[nH]c2ccccc12)C(=O)N[C@@H](C)C(=O)N1CCC[C@H]1C(=O)N[C@@H](Cc1c[nH]c2ccccc12)C(=O)N[C@@H](Cc1ccccc1)C(=O)N[C@@H](CCCCN)C(=O)N[C@@H](CCCCN)C(=O)N[C@@H](CC(C)C)C(N)=O [QLX-3DV-15] (H-KVINYKLRFFWAPWFKKL-NH2) | 4 (≈ 1.68 µM) | 4 (≈ 1.68 µM) | 8 (≈ 3.36 µM) | 4 (≈ 1.68 µM) | 8 (≈ 3.36 µM) | 64 (≈ 26.8 µM) | 4 (≈ 1.68 µM) | 32 (≈ 13.4 µM) | 64 (≈ 26.8 µM) | 16 (≈ 6.71 µM) | 8 (≈ 3.36 µM) | 16 (≈ 6.71 µM) | 16 (≈ 6.71 µM) | 4 (≈ 1.68 µM) |  |  |  | 
3 | CC[C@H](C)[C@H](NC(=O)[C@H](CC(C)C)NC(=O)[C@H](C)NC(=O)[C@H](CCCNC(=N)N)NC(=O)[C@@H](N)CCCNC(=N)N)C(=O)N[C@@H](Cc1ccc(O)cc1)C(=O)N[C@@H](CC(N)=O)C(=O)N[C@@H](CC(C)C)C(=O)N[C@H](C(=O)N[C@@H](CCCCN)C(=O)N[C@@H](CCCCN)C(=O)N[C@@H](Cc1c[nH]c2ccccc12)C(=O)N[C@@H](C)C(=O)N[C@@H](Cc1ccc(O)cc1)C(=O)N[C@@H](CO)C(=O)N[C@@H](Cc1ccc(O)cc1)C(=O)N[C@@H](CO)C(=O)N[C@@H](C)C(=O)N[C@H](C(N)=O)[C@@H](C)O)C(C)C [QLX-3DV-16] (H-RRALIYNLVKKWAYSYSAT-NH2) | 16 (≈ 6.95 µM) | 8 (≈ 3.47 µM) | 8 (≈ 3.47 µM) | 16 (≈ 6.95 µM) | 4 (≈ 1.74 µM) | 16 (≈ 6.95 µM) | 16 (≈ 6.95 µM) | 16 (≈ 6.95 µM) | 128 (≈ 55.6 µM) | 64 (≈ 27.8 µM) | 128 (≈ 55.6 µM) | 128 (≈ 55.6 µM) | 128 (≈ 55.6 µM) | 4 (≈ 1.74 µM) |  |  |  | 
4 | CC[C@H](C)[C@H](NC(=O)[C@H](CCSC)NC(=O)[C@H](Cc1c[nH]c2ccccc12)NC(=O)[C@@H](N)CCCCN)C(=O)N[C@@H](CCCCN)C(=O)N[C@@H](Cc1c[nH]c2ccccc12)C(=O)N1CCC[C@H]1C(=O)N[C@@H](CO)C(=O)N[C@@H](CC(N)=O)C(=O)N[C@@H](Cc1c[nH]c2ccccc12)C(=O)N[C@@H](Cc1ccccc1)C(=O)N[C@H](C(=O)N[C@@H](CCSC)C(=O)N[C@@H](CC(C)C)C(N)=O)[C@@H](C)O [QLX-227-1] (H-KWMIKWPSNWFTML-NH2) | 32 (≈ 17.1 µM) | 16 (≈ 8.57 µM) | 32 (≈ 17.1 µM) | 16 (≈ 8.57 µM) | 32 (≈ 17.1 µM) | 64 (≈ 34.3 µM) |  |  |  |  |  | 64 (≈ 34.3 µM) | 64 (≈ 34.3 µM) | 32 (≈ 17.1 µM) | 100.92 |  |  | 
5 | CC(=O)N[C@@H](CC(C)C)C(=O)N[C@@H](CCCCN)C(=O)N[C@@H](CCCNC(=N)N)C(=O)N[C@H](C(=O)N[C@@H](Cc1c[nH]c2ccccc12)C(=O)N[C@@H](CCCCN)C(=O)N[C@@H](CCCNC(=N)N)C(=O)N[C@H](C(=O)N[C@@H](Cc1ccccc1)C(=O)N[C@@H](CCCCN)C(=O)N[C@@H](CC(C)C)C(=O)N[C@@H](CC(C)C)C(=O)N[C@@H](CCCCN)C(=O)N[C@@H](CCCNC(=N)N)C(=O)N[C@@H](Cc1ccc(O)cc1)C(=O)N[C@@H](Cc1c[nH]c2ccccc12)C(=O)N[C@@H](CCCNC(=N)N)C(=O)N[C@@H](CCC(N)=O)C(=O)N[C@@H](CC(C)C)C(=O)N[C@@H](CCCCN)C(=O)N[C@@H](CCCCN)C(=O)N1CCC[C@H]1C(=O)N[C@H](C(=O)N[C@@H](CCCNC(=N)N)C(N)=O)C(C)C)C(C)C)C(C)C [SAAP-148, reference compound] (Ac-LKRVWKRVFKLLKRYWRQLKKPVR-NH2) |  |  |  |  |  |  |  |  |  |  |  |  |  |  | 26.89 | 50 |  | 
6 | CCC[C@@H]1C[C@@H](C(=O)N[C@@H]([C@H]2O[C@H](SC)[C@H](O)[C@@H](O)[C@H]2O)[C@H](C)Cl)N(C)C1 [clindamycin] |  |  |  |  |  |  |  |  |  |  |  |  |  |  |  |  | 15 | 
7 | CN[C@H](CC(C)C)C(=O)N[C@H]1C(=O)N[C@@H](CC(N)=O)C(=O)N[C@H]2C(=O)N[C@H]3C(=O)N[C@H](C(=O)N[C@H](C(=O)O)c4cc(O)cc(O)c4-c4cc3ccc4O)[C@H](O)c3ccc(c(Cl)c3)Oc3cc2cc(c3O[C@@H]2O[C@H](CO)[C@@H](O)[C@H](O)[C@H]2O[C@H]2C[C@](C)(N)[C@H](O)[C@H](C)O2)Oc2ccc(cc2Cl)[C@H]1O [vancomycin] |  |  |  |  |  |  |  |  |  |  |  |  |  |  |  |  | 18 | 64
